# Where a name gives a salt, the structure may show the parent alone. Read-outs that look alike come from different tables or passages of the source. Numbered stars: 1 amine (or outer) side, 2 acyl side, 3 side chain; on linkers, the order of the positions; unused ones are H or OH. Square brackets hold non-standard residues; d marks the D form. Peptide text beside a SMILES is read from it. * marks the point of attachment. dPiz(1,6-dehydro) = O=C(O)[C@H]1CCC=NN1; d1Nal = N[C@H](Cc1cccc2ccccc12)C(=O)O; d2Nal = N[C@H](Cc1ccc2ccccc2c1)C(=O)O; dNMeY = CN[C@H](Cc1ccc(O)cc1)C(=O)O; X6 = O=C([C@H]1CCCNN1[*:1])[*:2]; dNMeF = CN[C@H](Cc1ccccc1)C(=O)O; hPhe = N[C@@H](CCc1ccccc1)C(=O)O; Pip = O=C(O)[C@@H]1CCCCN1; dPip = O=C(O)[C@H]1CCCCN1; Orn = NCCC[C@H](N)C(=O)O; Dap = NC[C@H](N)C(=O)O; Boc = CC(C)(C)OC(=O)*
# Legend:
# uterine OT receptors = molecular target: T1, uterine OT receptors (Rattus norvegicus, UniProt P70536); assay: [^3 H]OT binding to uterine OT receptors, crude membrane preparation of uteri from DES-treated rats; conditions: for inhibition at 0.1 µM: 1 h, @ 100 (nM), read-out: [^3 H]OT: percent inhibition of radioligand at the given concentration
# T1 construct: from tissue; host or cells: uterus of DES-treated rats, crude membranes
# T1 sequence (P70536 1-388): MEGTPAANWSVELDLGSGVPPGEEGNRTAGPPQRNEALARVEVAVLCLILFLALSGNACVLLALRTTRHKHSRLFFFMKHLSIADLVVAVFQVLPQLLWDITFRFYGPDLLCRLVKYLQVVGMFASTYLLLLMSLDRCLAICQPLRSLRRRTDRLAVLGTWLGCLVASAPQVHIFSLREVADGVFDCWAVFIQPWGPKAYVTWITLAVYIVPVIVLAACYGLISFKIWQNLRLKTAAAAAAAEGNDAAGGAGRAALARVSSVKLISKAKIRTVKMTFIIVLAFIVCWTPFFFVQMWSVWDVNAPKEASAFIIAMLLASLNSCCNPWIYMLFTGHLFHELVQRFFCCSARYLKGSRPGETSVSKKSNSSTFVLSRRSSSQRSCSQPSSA
# Experimental: Competition studies were conducted at equilibrium (60 minutes; 22° C.) using 1 nM [^3 H]OT in the following assay buffer: 50 mM Tris-HCl, 5 mM MgCl2, and 0.1% BSA, pH 7.4.
# AVP-V1 sites = molecular target: T2, AVP-V1 sites (Rattus norvegicus, UniProt P30560); assay: [^3 H]AVP binding to crude membrane preparation of male rat liver (AVP-V1 sites)
# T2 construct: crude membrane preparation of male rat liver (AVP-V1 sites); from tissue; host or cells: male rat liver, crude membranes
# Experimental: (§1) Nonspecific binding (5-10% of the total binding) was determined using 10 μM unlabeled AVP, and the binding reaction was terminated by filtration as described above for the [^3 H]OT binding assay.
# AVP-V2 sites = molecular target: T3, AVP-V2 sites (Rattus norvegicus, UniProt Q00788); assay: [^3 H]AVP binding to crude membrane preparation of male rat kidney medulla (AVP-V2 sites)
# T3 construct: male rat liver (AVP-V1 sites) or kidney medulla (AVP-V2 sites); from tissue; host or cells: male rat kidney medulla, crude membranes
# Experimental: as §1
# [1] = rat uterus membranes, 1 nM [^3 H]OT, read-out: Receptor Binding Results IC50 (nM) [^3 H]OT
# [2] = Receptor Binding Results IC50 (nM) [^3 H]-AVP-V1
# [3] = rat kidney medulla membranes, 2 nM [^3 H]AVP, read-out: Receptor Binding Results IC50 (nM) [^3 H]-AVP-V2
# [4] = read-out: Receptor Binding Results IC50 (nM) [^3 H]-AVP-V2
# [5] = read-out: Receptor Binding Results IC50 (nM) [^3 H]-AVP-V1
# T3 sequence (Q00788 whole entry): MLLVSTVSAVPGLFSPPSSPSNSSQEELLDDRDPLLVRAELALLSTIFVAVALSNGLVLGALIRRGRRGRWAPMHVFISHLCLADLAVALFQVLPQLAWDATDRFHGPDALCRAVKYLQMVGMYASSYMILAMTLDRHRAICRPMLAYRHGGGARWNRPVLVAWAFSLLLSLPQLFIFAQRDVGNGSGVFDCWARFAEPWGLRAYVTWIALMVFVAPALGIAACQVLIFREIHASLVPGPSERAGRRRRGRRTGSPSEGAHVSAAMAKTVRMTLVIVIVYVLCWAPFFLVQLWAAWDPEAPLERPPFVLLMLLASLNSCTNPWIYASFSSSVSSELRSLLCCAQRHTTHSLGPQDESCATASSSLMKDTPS
# T2 sequence (P30560 whole entry): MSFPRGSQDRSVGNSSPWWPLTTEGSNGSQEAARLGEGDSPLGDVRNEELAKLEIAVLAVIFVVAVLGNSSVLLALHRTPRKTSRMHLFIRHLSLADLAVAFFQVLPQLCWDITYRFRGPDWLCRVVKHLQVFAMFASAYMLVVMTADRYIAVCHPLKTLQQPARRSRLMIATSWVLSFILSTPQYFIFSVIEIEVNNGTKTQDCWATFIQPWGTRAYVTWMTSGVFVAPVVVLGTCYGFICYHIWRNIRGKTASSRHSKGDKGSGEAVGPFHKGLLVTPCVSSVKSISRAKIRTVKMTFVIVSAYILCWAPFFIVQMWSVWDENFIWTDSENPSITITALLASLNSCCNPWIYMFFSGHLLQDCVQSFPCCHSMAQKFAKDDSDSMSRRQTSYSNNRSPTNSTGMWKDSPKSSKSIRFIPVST
IC50 (AVP-V2 sites; [4]) [nM],IC50 (AVP-V1 sites; [5]) [nM],SMILES,IC50 (uterine OT receptors; [1]) [nM],IC50 (AVP-V1 sites; [2]) [nM],IC50 (AVP-V2 sites; [3]) [nM],other results
,,"CC[C@H](C)[C@@H]1NC(=O)[C@@H](Cc2ccccc2)NC(=O)[C@@H]2CCCN2C(=O)[C@@H](Cc2ccccc2)N(C)C(=O)[C@H](CN)NC(=O)[C@H]2CCCCN2C1=O [Example 121, c-[D-Phenylalanyl-L-isoleucyl-D-pipecolyl-L-2,3-diaminopropionyl-N-methyl-D-phenylalanyl-L-prolyl]] (cyclo([Dap][dNMeF]P[dF]I[dPip]))",270,10000,10000,
3600,2700,"CC[C@H](C)[C@@H]1NC(=O)[C@@H](Cc2ccccc2)NC(=O)[C@@H]2CCCN2C(=O)[C@@H](Cc2ccccc2)N(C)C(=O)[C@H](CCCNC(=O)OC(C)(C)C)NC(=O)[C@H]2CCC=NN2C1=O [Example 124, c-[D-Phenylalanyl-L-isoleucyl-D-Δ-piperazyl(N^δ -Boc)-L-orinthyl-N-methyl-D-δ-phenyl-alaninyl-L-prolyl]] (cyclo(I[dPiz(1,6-dehydro)][Orn](Boc)[dNMeF]P[dF]))",17.5,,,
,810,"CC[C@H](C)[C@@H]1NC(=O)[C@@H](Cc2ccccc2)NC(=O)[C@@H]2CCCN2C(=O)[C@@H](Cc2ccccc2)N(C)C(=O)[C@H](CCCN)NC(=O)[C@H]2CCC=NN2C1=O [Example 125, c-[D-Phenylalanyl-L-isoleucyl-D-Δ-piperazyl-L-ornithyl-D-(N-methyl)phenylalanyl-L-prolyl] acetate salt] (cyclo(I[dPiz(1,6-dehydro)][Orn][dNMeF]P[dF]))",16,,1600,
,,"CC[C@H](C)[C@@H]1NC(=O)[C@@H](Cc2c[nH]c3ccccc23)NC(=O)[C@@H]2CCCN2C(=O)[C@@H](Cc2ccccc2)N(C)C(=O)[C@H](CCCNC(=O)OC(C)(C)C)NC(=O)[C@H]2CCC=NN2C1=O [Example 126, c-[D-Tryptophanyl-L-isoleucyl-D-Δ-piperazyl (N^δ -Boc)-L-ornithyl-N-methyl-D-phenylalanyl-L-prolyl]] (cyclo(I[dPiz(1,6-dehydro)][Orn](Boc)[dNMeF]P[dW]))",15,> 1000,,IC50 (AVP-V2 sites; Receptor Binding Results IC50 (nM) [^3 H]-AVP-V2): 1000 nM
,,"CC[C@H](C)[C@@H]1NC(=O)[C@@H](Cc2c[nH]c3ccccc23)NC(=O)[C@@H]2CCCN2C(=O)[C@@H](Cc2c[nH]cn2)NC(=O)[C@H](CCCNC(=O)OC(C)(C)C)NC(=O)[C@H]2CCCNN2C1=O [Example 128, c-[D-Tryptophanyl-L-isoleucyl-D-piperazyl(N^δ -Boc)-L-or nithyl-D-histidyl-L-prolyl]] (cyclo(I[X6][Orn](Boc)[dH]P[dW]))",118,10000,10000,
,,"CC[C@H](C)[C@@H]1NC(=O)[C@@H](Cc2c[nH]c3ccccc23)NC(=O)[C@@H]2CCCN2C(=O)[C@@H](Cc2c[nH]cn2)NC(=O)[C@H](CCCNC(=O)OC(C)(C)C)NC(=O)[C@H]2CCCCN2C1=O [Example 129, c-[D-Tryptophanyl-L-isoleucyl-D-pipecolyl-(N^δ -Boc)-L-ornithyl-D-histidyl-L-prolyl] acetate salt] (cyclo(I[dPip][Orn](Boc)[dH]P[dW]))",100,10000,10000,
500,400,"CC[C@H](C)[C@@H]1NC(=O)[C@@H](Cc2ccccc2)NC(=O)[C@@H]2CCCN2C(=O)[C@@H](Cc2ccccc2)N(C)C(=O)[C@H](CCCNC(=N)N)NC(=O)[C@H]2CCC=NN2C1=O [Example 131, c-[D-phenylalanyl-L-isoleucyl-D-Δ-piperazyl-L-arginyl-D-(Nα-methyl)-phenylalanyl-L-prolyl]trifluoroacetate salt] (cyclo(I[dPiz(1,6-dehydro)]R[dNMeF]P[dF]))",7.2,,,
,,"CC[C@H](C)[C@@H]1NC(=O)[C@@H](Cc2c[nH]c3ccccc23)NC(=O)[C@@H]2CCCN2C(=O)[C@@H](Cc2ccccc2)N(C)C(=O)[C@H](CCCCN)NC(=O)[C@H]2CCCCN2C1=O [Example 132, c-[D-Tryptophanyl-L-isoleucyl-D-pipecolyl-L-lysyl-D-(N-methyl)phenylalanyl-L-prolyl]] (cyclo(I[dPip]K[dNMeF]P[dW]))",65,> 10000,10000,
,,"CN1C(=O)[C@@H]2CCCCN2C(=O)[C@H]2CCCCN2C(=O)[C@H](CCc2ccccc2)NC(=O)[C@@H](Cc2c[nH]c3ccccc23)NC(=O)[C@@H]2CCCN2C(=O)[C@H]1Cc1ccccc1 [Example 133, c-[D-Tryptophanyl-L-homophenylalanyl-D-pipecolyl-L-pipecolyl-D-(N-methyl)phenylalanyl-prolyl]] (cyclo(P[dW][hPhe][dPip][Pip][dNMeF]))",3600,10000,10000,
5000,8800,"CN1C(=O)[C@@H]2CCCCN2C(=O)[C@H]2CCCCN2C(=O)[C@H](CCc2ccccc2)NC(=O)[C@@H](Cc2ccccc2)NC(=O)[C@@H]2CCCN2C(=O)[C@H]1Cc1ccccc1 [Example 135, c-[D-Phenylalanyl-L-homophenylalanyl-D-pipecolyl-L-pipecolyl-D-(N-methyl)phenylalanyl-L-prolyl]] (cyclo(P[dF][hPhe][dPip][Pip][dNMeF]))",3400,,,
245,9300,"CC[C@H](C)[C@@H]1NC(=O)[C@@H](Cc2c[nH]c3ccccc23)NC(=O)[C@@H]2CCCN2C(=O)[C@@H](Cc2ccc(O)cc2)N(C)C(=O)[C@@H]2CCCCN2C(=O)[C@H]2CCCCN2C1=O [Example 137, c-[D-Tryptophanyl-L-isoleucyl-D-pipecolyl-L-pipecolyl-D-(N-methyl)tyrosyl-L-prolyl]] (cyclo(I[dPip][Pip][dNMeY]P[dW]))",7.9,,,
,,"CC[C@H](C)[C@@H]1NC(=O)[C@@H](Cc2ccc3ccccc3c2)NC(=O)[C@@H]2CCCN2C(=O)[C@@H](Cc2ccccc2)N(C)C(=O)[C@H](CCCCNC(=O)OC(C)(C)C)NC(=O)[C@H]2CCCCN2C1=O [Example 138, c-[D-2-Naphthylalanyl-L-isoleucyl-D-pipecolyl-L-(N-t-butyloxycarbonyl)lysyl-D-(N-methyl)phenylalanyl-L-prolyl]] (cyclo(I[dPip]K(Boc)[dNMeF]P[d2Nal]))",,10000,,"inhibition at 0.1 µM (uterine OT receptors): 50%; inhibition at 1 µM (AVP-V2 sites; 0.5 h, @ 1,000 (nM), read-out: [^3 H]-AVP-V2: percent inhibition of radioligand at the given concentration): 42%"
8000,8000,"CC[C@H](C)[C@@H]1NC(=O)[C@@H](Cc2cccc3ccccc23)NC(=O)[C@@H]2CCCN2C(=O)[C@@H](Cc2ccccc2)N(C)C(=O)[C@H](CCCCNC(=O)OC(C)(C)C)NC(=O)[C@H]2CCCCN2C1=O [Example 139, C-[D-1-Napthylalanyl-L-isoleucyl-D-pipecolyl-L-(N-t-butyloxycarbonyl)lysyl-D-(N-methyl)phenylalanyl-L-prolyl]] (cyclo(I[dPip]K(Boc)[dNMeF]P[d1Nal]))",,,,inhibition at 0.1 µM (uterine OT receptors): 24%

SMILES,IC50 (AVP-V2 sites; [4]) [nM],IC50 (AVP-V1 sites; [5]) [nM],IC50 (uterine OT receptors; [1]) [nM],IC50 (AVP-V1 sites; [2]) [nM],IC50 (AVP-V2 sites; [3]) [nM],other results
"CCOc1ccc(C[C@H]2NC(=O)[C@@H]3CCCN3C(=O)[C@@H](Cc3ccccc3)N(C)C(=O)[C@@H]3CCCCN3C(=O)[C@H]3CCCCN3C(=O)[C@H]([C@@H](C)CC)NC2=O)cc1 [Example 122, c-[(O-Ethyl)-D-tyrosyl-L-isoleucyl-D-pipecolyl-L-pipecolyl-N-methyl-D-phenylalanyl-L-prolyl]] (cyclo(I[dPip][Pip][dNMeF]P[dY](Et)))",695,,130,> 10000,,
"CC[C@H](C)[C@@H]1NC(=O)[C@@H](Cc2c[nH]c3ccccc23)NC(=O)[C@@H]2CCCN2C(=O)[C@@H](Cc2ccccc2)N(C)C(=O)[C@H](CCCN)NC(=O)[C@H]2CCC=NN2C1=O [Example 127, c-[D-Tryptophanyl-L-isoleucyl-D-Δ-piperazyl-L-ornithyl-N-methyl-D-phenylalanyl L-prolyl]] (cyclo(I[dPiz(1,6-dehydro)][Orn][dNMeF]P[dW]))",,1600,,,330,IC50 (uterine OT receptors; Receptor Binding Results IC50 (nM) [^3 H]OT): 22 nM
"CN1C(=O)[C@@H]2CCCCN2C(=O)[C@H]2CCCCN2C(=O)[C@H](Cc2ccccc2)NC(=O)[C@@H](Cc2ccccc2)NC(=O)[C@@H]2CCCN2C(=O)[C@H]1Cc1ccccc1 [Example 136, c-[D-Phenylalanyl-L-phenylalanyl-D-pipecolyl-L-pipecolyl-D-(N-methyl)phenylalanyl-L-prolyl]] (cyclo(F[dPip][Pip][dNMeF]P[dF]))",8000,,410,> 10000,,

# From patent publication US5225528A, “Cyclic hexapeptide oxytocin antagonists” (priority 1990, dated 1993)
